Measured values as given in patent EP0338042B1, “COMPOSITION AND METHOD FOR TREATING HEPATITIS VIRUS INFECTIONS USING 1-(2'-DEOXY-2'-FLUORO-BETA-D-ARABINOFURANOSYL)-5-ETHYLURACIL” (priority 1987, dated 1989).
pEC50: −log10 of the molar value. “And” between values parts separate entries of the source, which are not always exact repeats. Identical values can stand only once. Like-named read-outs stand apart in the source and are kept apart here. Marks after values point to notes of the source that are not given here.

Tests used:
L-1210 CELLS = experiment: Inhibition of thymidine incorporation into DNA; assay type: cell-based, rodent; settings: Mus musculus, L1210, read-out: ED50 FOR […] INC[…] DNA, L-1210 CELLS; read-out: ED50 FOR INHIBITING THYMIDINE INCORPORATION INTO DNA, L-1210 CELLS
P-815 CELLS = experiment: Inhibition of thymidine incorporation into DNA; assay type: cell-based, rodent; settings: Mus musculus, P815, read-out: ED50 FOR […] INC[…] DNA, P-815 CELLS; read-out: ED50 FOR INHIBITING THYMIDINE INCORPORATION INTO DNA, P-815 CELLS
Vero cells [1] = experiment: Inhibition of cell growth; assay type: cell-based, African green monkey; settings: Chlorocebus sabaeus, read-out: ED50 FOR INHIBITING CELL GROWTH IN VERO CELLS
VERO = experiment: Incorporation of 2-14C-labeled nucleoside into DNA of cells; assay type: cell-based, African green monkey; settings: FEAU also not detectable at 100 μM
Excerpt: (§1) There was no detectable incorporation of FEAU radioactivity into the DNA of either L-1210 or Vero cell lines, but substantial amounts of FMAU radioactivity were incorporated into the DNA of both cell lines. When HSV-1 infected Vero cells were exposed to ¹⁴C-labeled FEAU and FMAU, both nucleosides incorporated into the DNA of these virus-infected cells.

[2] = system: HSV-1 INFECTED VERO CELLS; experiment: as above; assay type: cell-based, African green monkey; settings: [2-14C] labeled nucleoside
Excerpt: as §1

HL-60 CELLS = experiment: Inhibition of cell growth; assay type: cell-based; settings: Homo sapiens, HL-60, read-out: ED50 FOR INHIBITING CELL GROWTH IN HL-60 CELLS
Vero cells [3] = settings: cytotoxic effect measured in rapidly dividing cells; read-out: ID₅₀; cited from earlier work
L-1210 = experiment: Incorporation of 2-14C-labeled nucleoside into DNA of cells; assay type: cell-based, rodent; settings: FEAU also not detectable at 100 μM
Excerpt: as §1

[4] = system: simian varicella virus (SVV); experiment: Simian varicella virus infection in the African green monkey; settings: for VIREMIA - MEAN PFU ON DAYS P.I. 3: IV twice daily for ten days from 48 hours after inoculation; for VIREMIA - MEAN PFU ON DAYS P.I. 5 / VIREMIA - MEAN PFU ON DAYS P.I. 7 / VIREMIA - MEAN PFU ON DAYS P.I. 9 / VIREMIA - MEAN PFU ON DAYS P.I. 11: IV twice daily for ten days
[5] = cited from earlier work
HSV-2 (STRAIN G) = settings: cited from earlier work; for MDD: calculated on day 21; for %WT GAIN ON DAY 7 / %WT GAIN ON DAY 14 / %WT GAIN ON DAY 21 / %WT GAIN ON DAY 30: compared to day 1
RAT BONE MARROW CELLS = experiment: Inhibition of thymidine incorporation into DNA; assay type: cell-based; settings: Bone marrow cell, read-out: ED50 FOR […] INC[…] DNA, RAT BONE MARROW CELLS, read-out: ED50 FOR INHIBITING THYMIDINE INCORPORATION INTO DNA, RAT BONE MARROW CELLS
HSV-2(G) [6] = experiment: Plaque reduction assay in Vero cells; assay type: cell-based; settings: monkey
Excerpt: (§2) With FMAU as a lead compound, the syntheses of other 5-alkyl substituted 2′-fluoro-ara-uracils were undertaken (8, 9), including 1-(2′-deoxy-2′-fluoro-beta-D-arabinofuranosyl)-5-ethyluracil [FEAU].

HSV-1(F) = experiment: Plaque reduction assay in Vero cells; assay type: cell-based; settings: monkey
Excerpt: as §2

HSV-2(G) [7] = settings: plaque reduction in Vero cells, cited from earlier work
[8] = FEAU 3 MG/KG/DAY, one line per monkey
[9] = FEAU 10 MG/KG/DAY, one line per monkey
[10] = FEAU 30 MG/KG/DAY, one line per monkey
[11] = FEAU 10 MG/KG/DAY, single surviving animal only

CCc1cn([C@@H]2O[C@H](CO)[C@@H](O)[C@@H]2F)c(=O)[nH]c1=O [FEAU, 1-(2'-deoxy-2'-fluoro-beta-D-arabino-furanosyl)-5-ethyl-uracil]
pEC50 (L-1210 CELLS): 3.20
pEC50 (P-815 CELLS): 3.15
pEC50 (Vero cells [1]): < 3.70
INCORPORATION INTO DNA AT 10μM, VERO (VERO): NOT DETECTABLE*
INCORPORATION INTO DNA AT 10μM, HSV-1 INFECTED VERO CELLS [2]: 0.48 p MOLE/10^6 CELLS/HR
pEC50 (HL-60 CELLS): 2.69
CC50 (Vero cells [3]): 200 µM
INCORPORATION INTO DNA AT 10μM, L-1210 (L-1210): NOT DETECTABLE*
minimal effective dose ([4]; Cercopithecine alphaherpesvirus 9, in Primates): ~1 mg/kg/day
RASH -SEVERITY ON DAYS P.I. 9 ([4]; FEAU 1 MG/KG/DAY by stomach tube twice daily for ten days, one line per monkey): ±
VIREMIA - MEAN PFU ON DAYS P.I. 3 [4, 8]: 1 PFU and 0 PFU
VIREMIA - MEAN PFU ON DAYS P.I. 5 [4, 8]: 8 PFU and 1 PFU
VIREMIA - MEAN PFU ON DAYS P.I. 7 [4, 8]: 0 PFU and 1 PFU
VIREMIA - MEAN PFU ON DAYS P.I. 9 [4, 8]: 0 PFU
VIREMIA - MEAN PFU ON DAYS P.I. 11 [4, 8]: 0 PFU
VIREMIA - MEAN PFU ON DAYS P.I. 3 [4, 9]: 1 PFU and 0 PFU
VIREMIA - MEAN PFU ON DAYS P.I. 5 [4, 9]: 14 PFU and 1 PFU
VIREMIA - MEAN PFU ON DAYS P.I. 7 [4, 9]: 5 PFU and 1 PFU
VIREMIA - MEAN PFU ON DAYS P.I. 9 [4, 9]: 0 PFU
VIREMIA - MEAN PFU ON DAYS P.I. 11 [4, 9]: 0 PFU
VIREMIA - MEAN PFU ON DAYS P.I. 3 [4, 10]: 1 PFU and 2 PFU
VIREMIA - MEAN PFU ON DAYS P.I. 5 [4, 10]: 0 PFU
VIREMIA - MEAN PFU ON DAYS P.I. 7 [4, 10]: 0 PFU
VIREMIA - MEAN PFU ON DAYS P.I. 9 [4, 10]: 0 PFU
VIREMIA - MEAN PFU ON DAYS P.I. 11 [4, 10]: 0 PFU
rash ([4]; intravenous route, 30, 10 and 3 mg/kg/day x 10): none of the FEAU-treated monkeys developed rash
hematology tests and serum chemistries ([4]; intravenous route, 30, 10 and 3 mg/kg/day x 10, all treated monkeys): normal
toxicity ([4]; intravenous route, three dose levels up to 30 mg/kg/day x 10): no apparent toxicity
rash ([4]; lower dose of 1 mg/kg/day): prevented development of rash
viremia ([4]; lower dose of 1 mg/kg/day): did not reduce viremia in two of three monkeys
viremia ([4]; oral administration, 10, 3 or 1 mg/kg/day x 10): reduced viremia significantly
toxicity ([4]; oral route, 10 mg/kg/day x 10): without any observed toxicity
toxicity ([5]; in vivo experiments with mice): relatively nontoxic
toxicity ([5]; normal (uninfected) mice, 800 mg/kg/day given twice daily for 4 days): non-toxic
MDD (HSV-2 (STRAIN G); FEAU 10 MG/KG/DAY, twice a day for 4 days from 5 hr after inoculation): 9.4
% SURVIVORS (HSV-2 (STRAIN G); FEAU 10 MG/KG/DAY, twice a day for 4 days): 8%
%WT GAIN ON DAY 7 (HSV-2 (STRAIN G); FEAU 10 MG/KG/DAY): -7%
%WT GAIN ON DAY 14 (HSV-2 (STRAIN G); [11]): -13^+ %
%WT GAIN ON DAY 21 (HSV-2 (STRAIN G); [11]): 31^+ %
%WT GAIN ON DAY 30 (HSV-2 (STRAIN G); [11]): 36^+ %
MDD (HSV-2 (STRAIN G); FEAU 50 MG/KG/DAY, twice a day for 4 days from 5 hr after inoculation): 11.8
% SURVIVORS (HSV-2 (STRAIN G); FEAU 50 MG/KG/DAY, twice a day for 4 days): 25%
%WT GAIN ON DAY 7 (HSV-2 (STRAIN G); FEAU 50 MG/KG/DAY): 3%
%WT GAIN ON DAY 14 (HSV-2 (STRAIN G); FEAU 50 MG/KG/DAY): -10%
%WT GAIN ON DAY 21 (HSV-2 (STRAIN G); FEAU 50 MG/KG/DAY): 16%
%WT GAIN ON DAY 30 (HSV-2 (STRAIN G); FEAU 50 MG/KG/DAY): 25%
MDD (HSV-2 (STRAIN G); FEAU 100 MG/KG/DAY, twice a day for 4 days from 5 hr after inoculation): 11.0
% SURVIVORS (HSV-2 (STRAIN G); FEAU 100 MG/KG/DAY, twice a day for 4 days): 72%
%WT GAIN ON DAY 7 (HSV-2 (STRAIN G); FEAU 100 MG/KG/DAY): 2%
%WT GAIN ON DAY 14 (HSV-2 (STRAIN G); FEAU 100 MG/KG/DAY): 7%
%WT GAIN ON DAY 21 (HSV-2 (STRAIN G); FEAU 100 MG/KG/DAY): 13%
%WT GAIN ON DAY 30 (HSV-2 (STRAIN G); FEAU 100 MG/KG/DAY): 13%
MDD (HSV-2 (STRAIN G); FEAU 200 MG/KG/DAY, twice a day for 4 days, parentheses: death of a single animal): (14)^#
% SURVIVORS (HSV-2 (STRAIN G); FEAU 200 MG/KG/DAY, twice a day for 4 days): 93%
%WT GAIN ON DAY 7 (HSV-2 (STRAIN G); FEAU 200 MG/KG/DAY): 0%
%WT GAIN ON DAY 14 (HSV-2 (STRAIN G); FEAU 200 MG/KG/DAY): 1%
%WT GAIN ON DAY 21 (HSV-2 (STRAIN G); FEAU 200 MG/KG/DAY): 9%
%WT GAIN ON DAY 30 (HSV-2 (STRAIN G); FEAU 200 MG/KG/DAY): 13%
toxicity (HSV-2 (STRAIN G); HSV-2 infected mice, doses of 100-200 mg/kg/day): no toxicity was observed
toxicity (Toxicity in dogs; 50 mg/kg/day x 10, preliminary studies): moderate toxicity
lethal dose (Toxicity in dogs; FMAU i.v. x 5, FEAU x 10 (preliminary)): 100 mg/kg/day
pEC50 (RAT BONE MARROW CELLS): 2.43
THER. INDEX ID₅₀/ED₉₀ HSV-2 (HSV-2(G) [6]): 220
THER. INDEX ID₅₀/ED₉₀ HSV-1 (HSV-1(F)): 769
pEC50 (HSV-2(G) [7]; read-out: HSV-2(G) ED₅₀): 6.62
EC90 (HSV-2(G) [7]; read-out: HSV-2(G) ED₉₀): 0.91 µM
